Measured values: ChEMBL document CHEMBL4311972, “Discovery of a benzothiophene-flavonol halting miltefosine and antimonial drug resistance in Leishmania parasites through the application of medicinal chemistry, screening and genomics” (Eur J Med Chem, 2019)

Legend:
CYP1A2 = molecular target: T1, CYP1A2 (Homo sapiens, UniProt P05177); assay: Inhibition of human microsomal CYP1A2 expressed in baculovirus infected insect cells at 10 uM using luciferin-1A2 as substrate preincubated with enzyme/substrate mixture for 30 mins followed by further incubation with NADPH for 30 mins by CYP450 luciferase Glo assay relative to control; assay type: ADME; conditions: probe luciferin-1A2
T1 sequence (P05177 whole entry): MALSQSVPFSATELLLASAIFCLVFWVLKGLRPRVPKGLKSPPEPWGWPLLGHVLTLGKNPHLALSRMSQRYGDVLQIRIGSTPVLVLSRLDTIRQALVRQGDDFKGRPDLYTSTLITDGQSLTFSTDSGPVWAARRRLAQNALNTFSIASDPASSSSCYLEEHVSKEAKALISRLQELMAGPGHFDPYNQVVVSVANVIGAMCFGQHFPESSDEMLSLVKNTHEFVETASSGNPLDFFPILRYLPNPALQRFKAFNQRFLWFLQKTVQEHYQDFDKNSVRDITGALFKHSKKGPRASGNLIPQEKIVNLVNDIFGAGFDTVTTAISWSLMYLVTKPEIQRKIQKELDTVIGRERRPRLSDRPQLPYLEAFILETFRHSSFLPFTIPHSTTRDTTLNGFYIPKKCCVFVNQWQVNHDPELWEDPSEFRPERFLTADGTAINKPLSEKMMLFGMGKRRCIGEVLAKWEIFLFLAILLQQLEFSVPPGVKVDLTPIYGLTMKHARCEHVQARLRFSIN

786-0 = assay: Mitochondrial toxicity in human 786-0 cells at 10 uM incubated with compound for 6 hrs followed by incubation with MitoTracker Red chloromethyl-X-rosamine dye for 45 mins by imaging analysis; assay type: cell-based; conditions: 786-0, 6 h
[1] = Selectivity index, ratio of CC50 for human THP1 cells to EC50 for Trypanosoma brucei bloodstream form; assay type: toxicity; conditions: read-out: Ratio CC50/EC50
[2] = Cytotoxicity against human A549 cells assessed as cell growth at […] incubated for 48 hrs by Celltiter-Glo luminescence assay relative to control; assay type: cell-based; design: dose or concentration left out as unconfirmed; conditions: read-out: Activity
hERG (KCNH2) = hERG (KCNH2) (Homo sapiens, UniProt Q12809); assay: Inhibition of human ERG at 10 uM incubated for 2 hrs by fluorescence polarization assay relative to control
[3] = Cytotoxicity against human THP1 cells by MTT assay; assay type: cell-based, THP-1
CYP3A4 = CYP3A4 (Homo sapiens, UniProt P08684); assay: Inhibition of human microsomal CYP3A4 expressed in baculovirus infected insect cells at 10 uM using luciferin-IPA as substrate preincubated with enzyme/substrate mixture for 30 mins followed by further incubation with NADPH for 30 mins by CYP450 luciferase Glo assay relative to control; assay type: ADME; conditions: probe luciferin-IPA
CYP2C9 = CYP2C9 (Homo sapiens, UniProt P11712); assay: Inhibition of human microsomal CYP2C9 expressed in baculovirus infected insect cells at 10 uM using luciferin-H as substrate preincubated with enzyme/substrate mixture for 30 mins followed by further incubation with NADPH for 30 mins by CYP450 luciferase Glo assay relative to control; assay type: ADME; conditions: probe luciferin-H
CYP2D6 = CYP2D6 (Homo sapiens, UniProt P10635); assay: Inhibition of human microsomal CYP2D6 expressed in baculovirus infected insect cells at 10 uM using luciferin-ME as substrate preincubated with enzyme/substrate mixture for 30 mins followed by further incubation with NADPH for 30 mins by CYP450 luciferase Glo assay relative to control; assay type: ADME; conditions: probe luciferin-ME
CYP2C19 = CYP2C19 (Homo sapiens, UniProt P33261); assay: Inhibition of human microsomal CYP2C19 expressed in baculovirus infected insect cells at 10 uM using luciferin-H EGE as substrate preincubated with enzyme/substrate mixture for 30 mins followed by further incubation with NADPH for 30 mins by CYP450 luciferase Glo assay relative to control; assay type: ADME; conditions: probe luciferin-H EGE
Trypanosoma brucei = assay: Antitrypanosomal activity against Trypanosoma brucei bloodstream form assessed as parasite growth inhibition incubated for 72 hrs by resazurin dye based assay; assay type: functional, organism-based; conditions: Trypanosoma brucei, 72 h; read-out: EC50

Chain of CYP2D6 (P10635 whole entry): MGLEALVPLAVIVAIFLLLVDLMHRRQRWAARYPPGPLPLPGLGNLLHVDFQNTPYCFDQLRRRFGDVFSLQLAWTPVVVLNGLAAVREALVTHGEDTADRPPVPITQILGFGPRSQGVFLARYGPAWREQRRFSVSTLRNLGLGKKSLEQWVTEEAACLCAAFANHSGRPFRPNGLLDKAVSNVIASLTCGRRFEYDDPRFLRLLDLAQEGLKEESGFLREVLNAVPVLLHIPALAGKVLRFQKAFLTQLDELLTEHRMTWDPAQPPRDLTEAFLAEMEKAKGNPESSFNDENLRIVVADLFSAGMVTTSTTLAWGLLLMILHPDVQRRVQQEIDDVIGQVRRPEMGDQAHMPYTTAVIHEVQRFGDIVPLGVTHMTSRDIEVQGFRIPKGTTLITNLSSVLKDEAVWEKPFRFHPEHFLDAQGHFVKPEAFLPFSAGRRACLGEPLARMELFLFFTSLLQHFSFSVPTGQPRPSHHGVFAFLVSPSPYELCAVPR
Chain of CYP3A4 (P08684 whole entry): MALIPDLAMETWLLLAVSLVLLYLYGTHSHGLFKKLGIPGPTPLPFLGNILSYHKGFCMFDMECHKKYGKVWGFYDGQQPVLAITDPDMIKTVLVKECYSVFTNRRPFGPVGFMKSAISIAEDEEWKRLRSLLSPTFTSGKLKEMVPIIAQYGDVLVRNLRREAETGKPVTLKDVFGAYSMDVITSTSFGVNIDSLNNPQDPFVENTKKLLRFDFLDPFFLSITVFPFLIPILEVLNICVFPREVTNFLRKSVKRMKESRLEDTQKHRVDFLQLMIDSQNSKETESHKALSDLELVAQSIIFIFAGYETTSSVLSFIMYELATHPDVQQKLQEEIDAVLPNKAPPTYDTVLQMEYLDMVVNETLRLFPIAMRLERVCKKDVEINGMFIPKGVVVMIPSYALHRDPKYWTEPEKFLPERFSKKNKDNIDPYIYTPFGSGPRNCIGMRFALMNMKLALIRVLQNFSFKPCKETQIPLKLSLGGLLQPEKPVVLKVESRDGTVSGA
Chain of CYP2C9 (P11712 whole entry): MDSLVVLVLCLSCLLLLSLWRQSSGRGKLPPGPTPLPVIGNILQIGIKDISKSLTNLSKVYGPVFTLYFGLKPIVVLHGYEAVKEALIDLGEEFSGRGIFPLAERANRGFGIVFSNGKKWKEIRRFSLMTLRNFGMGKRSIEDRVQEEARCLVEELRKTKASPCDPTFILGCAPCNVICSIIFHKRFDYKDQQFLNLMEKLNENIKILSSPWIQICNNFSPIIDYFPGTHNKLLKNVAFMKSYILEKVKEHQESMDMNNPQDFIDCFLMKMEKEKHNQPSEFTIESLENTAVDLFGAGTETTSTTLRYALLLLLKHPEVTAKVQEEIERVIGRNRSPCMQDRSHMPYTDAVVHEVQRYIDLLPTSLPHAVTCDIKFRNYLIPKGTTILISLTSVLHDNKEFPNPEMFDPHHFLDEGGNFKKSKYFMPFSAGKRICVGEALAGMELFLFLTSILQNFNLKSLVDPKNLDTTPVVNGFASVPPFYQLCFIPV
Chain of CYP2C19 (P33261 whole entry): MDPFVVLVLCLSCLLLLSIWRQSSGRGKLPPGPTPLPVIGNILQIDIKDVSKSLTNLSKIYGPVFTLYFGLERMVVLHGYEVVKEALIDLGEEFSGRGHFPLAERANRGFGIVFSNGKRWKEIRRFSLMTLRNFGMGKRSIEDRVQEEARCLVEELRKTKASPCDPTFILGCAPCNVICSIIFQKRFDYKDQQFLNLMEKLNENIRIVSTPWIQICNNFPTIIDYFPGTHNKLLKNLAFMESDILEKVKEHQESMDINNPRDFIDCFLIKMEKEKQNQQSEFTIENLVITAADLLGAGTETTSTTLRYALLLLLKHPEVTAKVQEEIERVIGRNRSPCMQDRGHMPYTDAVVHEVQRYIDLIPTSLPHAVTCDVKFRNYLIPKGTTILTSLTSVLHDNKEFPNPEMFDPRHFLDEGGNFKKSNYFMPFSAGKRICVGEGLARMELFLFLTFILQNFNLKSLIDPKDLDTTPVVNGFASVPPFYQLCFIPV
Chain of hERG (KCNH2) (Q12809 whole entry): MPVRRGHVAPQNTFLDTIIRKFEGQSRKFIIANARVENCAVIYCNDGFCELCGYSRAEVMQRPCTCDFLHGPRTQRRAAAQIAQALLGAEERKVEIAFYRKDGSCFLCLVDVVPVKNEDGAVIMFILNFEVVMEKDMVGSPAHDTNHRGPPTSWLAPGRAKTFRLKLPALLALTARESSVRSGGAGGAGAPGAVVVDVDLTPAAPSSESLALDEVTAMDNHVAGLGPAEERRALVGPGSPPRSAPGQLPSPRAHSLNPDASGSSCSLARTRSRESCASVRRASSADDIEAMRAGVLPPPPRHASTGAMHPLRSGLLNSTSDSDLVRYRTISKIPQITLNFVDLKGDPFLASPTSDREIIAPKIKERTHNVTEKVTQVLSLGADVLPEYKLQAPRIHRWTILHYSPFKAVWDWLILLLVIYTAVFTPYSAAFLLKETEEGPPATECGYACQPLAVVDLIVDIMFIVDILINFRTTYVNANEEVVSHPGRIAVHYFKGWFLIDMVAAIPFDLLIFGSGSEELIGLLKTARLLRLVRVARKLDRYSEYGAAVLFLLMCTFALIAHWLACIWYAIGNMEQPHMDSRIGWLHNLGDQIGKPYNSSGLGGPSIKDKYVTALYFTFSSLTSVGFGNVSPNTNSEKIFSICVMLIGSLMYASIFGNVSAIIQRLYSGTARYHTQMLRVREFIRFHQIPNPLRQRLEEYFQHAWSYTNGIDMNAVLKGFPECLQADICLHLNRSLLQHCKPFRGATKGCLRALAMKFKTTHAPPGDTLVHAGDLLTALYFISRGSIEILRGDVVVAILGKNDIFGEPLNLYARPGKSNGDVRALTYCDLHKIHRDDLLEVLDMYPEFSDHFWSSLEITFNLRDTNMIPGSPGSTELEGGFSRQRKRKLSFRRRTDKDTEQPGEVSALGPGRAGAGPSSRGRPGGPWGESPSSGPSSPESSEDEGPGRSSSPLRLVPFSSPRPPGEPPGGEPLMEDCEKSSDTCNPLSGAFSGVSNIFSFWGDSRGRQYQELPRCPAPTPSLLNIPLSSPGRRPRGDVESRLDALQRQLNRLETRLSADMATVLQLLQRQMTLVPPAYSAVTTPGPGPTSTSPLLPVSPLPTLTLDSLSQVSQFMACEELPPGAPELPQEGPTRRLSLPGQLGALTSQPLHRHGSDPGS

SMILES | inhibition at 0.5 h, 10 µM (CYP1A2) [%] | Activity (786-0) [%] | selectivity ratio [1] | viability at 48 h [2] [%] | inhibition at 2 h, 10 µM (hERG (KCNH2)) [%] | CC50 [3] [µM] | inhibition at 0.5 h, 10 µM (CYP3A4) [%] | inhibition at 0.5 h, 10 µM (CYP2C9) [%] | inhibition at 0.5 h, 10 µM (CYP2D6) [%] | inhibition at 0.5 h, 10 µM (CYP2C19) [%] | EC50 (Trypanosoma brucei) [µM]
COc1ccc2oc(-c3cccc(-c4ccc(OC)c(OC)c4)c3)c(O)c(=O)c2c1 | 83.1 | -9.66 | 8 | 19.5 | -14.3 | 25 to 50 | 52.5 | 40.1 | 40.6 | 22 | 3
COc1ccc2oc(-c3cc(C)cs3)c(O)c(=O)c2c1 | 94.8 | -5.29 | 4 | 98.8 | 6.55 | 25 to 50 | 4.51 | 29.2 | 30.6 | 20.9 | 5.7
COc1ccc2c(=O)c(O)c(-c3ccc4c(c3)OCO4)oc2c1 | 101 | 6.41 | 250 | 43.2 | 9.49 | > 100 | 55.5 | 72.7 | 105 | 80.3 | 0.4
Cc1ccc2oc(-c3ccc(C)s3)c(O)c(=O)c2c1 | 96.5 | -15.83 | 7 | 30.9 | 34.3 | 25 to 50 | 10.4 | 6.64 | 22.6 | 19.1 | 3.3
COc1cccc2oc(-c3cc(C)cs3)c(O)c(=O)c12 | 106 | -7.63 | 4 | 25.3 | -7.47 | 12.5 to 25 | 24.5 | 53.5 | 21.2 | 19.2 | 3.4
Cc1csc(-c2oc3ccc(C)cc3c(=O)c2O)c1 | 98.8 | -13.79 | 36 | 15.3 | 13.2 | > 100 | 23.5 | 35.1 | 25.3 | 26.2 | 2.8
COc1ccc2oc(-c3c[nH]c4ccccc34)c(O)c(=O)c2c1 | 101 | -12.53 | 8 | 20.9 | 41.2 | 12.5 to 25 | 11 | 28.8 | -8 | 32.6 | 1.4
Cc1csc(-c2oc3ccc(O)cc3c(=O)c2O)c1 | 96.1 | 4.24 | 2 | 93.8 | 16.1 | 10 to 25 | 17.6 | 40.1 | 40.1 | 35.2 | 4.9
O=c1c(O)c(-c2c[nH]c3ccccc23)oc2ccc(O)cc12 | 101 | 17.38 | 16 | 5.87 | 53.2 | 50 to 100 | 18.7 | 40.2 | -0.42 | 47.9 | 3.1
O=c1c(O)c(-c2cccc(-c3ccc(O)c(O)c3)c2)oc2ccc(O)cc12 | 51.9 | -1.03 | 15 | 32.5 | 4.2 | 25 to 50 | 21.5 | -22.6 | 34 | 31.5 | 1.7
